In brackets after ≈: the same amount, converted by molar mass. Where two headings read alike, the source gives them in different places.
Legend:
Assay type in all cases: in vivo
[1] = test system: 3rd-instar larvae of Chilo suppressalis (Walker); assay: Joint toxicity of I-72 + organophosphorus insecticides, rice seedling dipping, Example 15, Table 15; settings: 3rd-instar larvae, rice seedling dipping, 48 h, A = compound I-72, B = diazinon, read-out: LC50
Method: Test target: 3rd-instar larvae of Chilo suppressalis (Walker), a sensitive strain reared indoors.
(§1) Preparation of the pesticide solution: according to different test requirements, the test samples were accurately weighed respectively with an electronic analytical balance. The technical pesticides were dissolved in acetone, and then diluted with 0.1% Tween 80 water into a series of pesticide solutions with a certain concentration gradient according to the experimental design dosage.
(§2) Experimental method: first, tender and fresh rice seedlings were selected and dipped in the prepared pesticide solution for 10 s in the order from low dosage to high dosage according to the experimental design. After natural air-drying in the shade, they were cut into small sections of 5 cm, placed in a 9-cm-diameter Petri dish with filter paper, and uniform and healthy test insects were introduced, with 10 insects for each treatment and 3 replicates for each treatment. In addition, a blank control was set up.
(§3) The treated test materials were placed in an observation room, and the temperature, humidity and illumination of the observation room could be adjusted as needed. The number of dead and live insects was investigated 48 hours later. The corrected mortality rate was calculated using the Abbott's formula, and statistical analysis was performed with the DPS data processing software to obtain the toxicity regression equation, LC50 value and 95% confidence limit of each single test pesticide and each mixture of different ratios. Then, the co-toxicity coefficient of each ratio was calculated using the Sun Y-P method to evaluate the mixing effect (the same as in Example 1).

[2] = test system: Aphis gossypii Glover nymphs; assay: Joint toxicity of I-72 + organophosphorus insecticides, cotton leaf spraying, Example 17, Table 17; settings: 48 h
Method: Test target: Aphis gossypii Glover nymphs, a sensitive strain reared indoors.
as §1
Experimental method: first, cotton leaves with uniform and consistent Aphis gossypii were selected, with about 20 insects on each leaf. Then, they were evenly sprayed with the pesticide solution in the order from low dosage to high dosage according to the experimental design, with 1.5 mL for each leaf and 3 replicates for each treatment. In addition, a blank control was set up.
as §3

[3] = test system: early 2nd-instar grubs of Holotrichia diomphalia Bates; assay: whole plant or invertebrate
Method: Test target: early 2nd-instar grubs of Holotrichia diomphalia Bates.
(§4) Test conditions: temperature: 24-26° C., humidity: RH 60%, and illumination: L:D=14:10
as §1
Experimental method: the activity against Holotrichia diomphalia Bates was determined by the insect-dipping method. The early 2nd-instar grubs of Holotrichia diomphalia Bates were selected. The target insects were dipped into the pesticide solution for 10 s and then taken out. Excess pesticide solution was absorbed with filter paper. […] A treatment without the pesticide was set as the blank control.
The test insects were transferred to a multi-well culture plate with fresh potato pieces and placed in an observation room, and the temperature, humidity and illumination of the observation room could be adjusted as needed. The number of dead and live insects was investigated 72 hours later. The corrected mortality rate was calculated using the Abbott's formula, and statistical analysis was performed with the DPS data processing software to obtain the toxicity regression equation and LC50 value of each single test pesticide and each mixture of different ratios.

[4] = test system: 3rd-instar larvae of Hyphantria cunea; assay: Joint toxicity of I-72 + organophosphorus insecticides, poplar leaf dipping, Example 20, Table 20; settings: foliar, A = compound I-72, B = phoxim, poplar leaf dipping, 72 hours, read-out: LC50
Source text: Test target: 3rd-instar larvae of Hyphantria cunea, a sensitive strain reared indoors.
Experimental method: first, fresh and tender poplar leaves were selected, cut into small sections of 5 cm, and dipped in the prepared pesticide solution for 10 s in the order from low dosage to high dosage according to the experimental design. After natural air-drying in the shade, they were placed in a 9-cm-diameter Petri dish with filter paper, and uniform and healthy test insects were introduced, with 10 insects for each treatment and 3 replicates for each treatment. In addition, a blank control was set up.
The treated test materials were placed in an observation room, and the temperature, humidity and illumination of the observation room could be adjusted as needed. The number of dead and live insects was investigated 72 hours later.

Rhizoctonia solani = assay: Control efficacy against Rhizoctonia solani, rice seedling potting method, Example 89, Table 89; settings: rice seedlings, foliar spraying
Method: Control efficacy of the composition containing the compound I-72 against Rhizoctonia solani
Test target: Rhizoctonia solani, a sensitive strain cultured indoors.
The trial adopted the seedling potting method. Test crop: rice. Experimental method: the rice seedlings were cultured to the 2-leaf stage in the greenhouse of the experimental materials. Foliar spraying treatment was performed on the crop sprayer according to the designed dosage. The test target strain was inoculated 24 hours after the pesticide treatment. All the inoculated experimental materials were cultured in a phytotron. […] The disease grading and the calculation method of the control efficacy both referred to the agricultural industry standards of the People's Republic of China.

[5] = test system: 3rd-instar larvae of Ostrinia furnacalis Guenee; assay: Synergism screening (Bliss) of I-72 + ecdysteroid and juvenile hormone insecticides, Example 51, Table 51; settings: for Measured mortality rate: single pesticide, 72 hours; for mortality at 0.04 µg/mL / mortality at 2 µg/mL / mortality at 100 µg/mL / mortality at 0.1 µg/mL / mortality at 40 µg/mL: Ostrinia furnacalis, 72 h, read-out: Measured mortality rate
Method: Test target: 3rd-instar larvae of Ostrinia furnacalis Guenee.
as §1
as §2, with “corn stems” for “and fresh rice seedlings”, “were” for “were cut into small sections of 5 cm,”, “control (CK)” for “control”
(§5) The treated test materials were placed in an observation room, and the temperature, humidity and illumination of the observation room could be adjusted as needed. The number of dead and alive insects was investigated 72 hours later, and the corrected mortality rate was calculated using the Abbott's formula.
The synergism of the mixture was evaluated by adopting the Bliss method, as in Example 5.

[6] = test system: Sitobion miscanthi (Fabricius); assay: whole plant or invertebrate; settings: for Measured mortality rate: single pesticide, 48 hours
Method: Test target: Sitobion miscanthi (Fabricius).
as §1
Experimental method: first, wheat seedlings with uniform and consistent Sitobion miscanthi (Fabricius) were selected, with about 30-40 insects on each pot of wheat. Then, they were evenly sprayed with the pesticide solution in the order from low dosage to high dosage according to the experimental design, with 2.5 mL for each pot and 3 replicates for each treatment. In addition, a blank control CK was set up.
as §5, with “48” for “72”
The synergism of the mixture was evaluated by the Bliss method. According to the concept of independent joint action he proposed, Bliss believes that the theoretical mortality rate P when insecticides are used in combination can be calculated by the following formula: […]
Pm is the measured mortality rate (%) of the target when the first active ingredient is at a concentration of m; and Pn is the measured mortality rate (%) of the target when the second active ingredient is used at a concentration of n.
(§6) If the actual mortality rate of the target after the two active ingredients are mixed at a certain concentration is greater than theoretical mortality rate P, it is determined that the two active ingredients have a synergistic effect when used in combination at the set concentration, and otherwise, they have an antagonistic effect.

[7] = test system: 3rd-instar larvae of Pyrausta nubilalis Hubern; assay: Synergism assay (Bliss) of I-72 + cartap, monosultap, bisultap, Example 5, Table 5; settings: 72 h
Method: Test subject: 3rd-instar larvae of Pyrausta nubilalis Hubern, a sensitive strain reared indoors.
as §4
Preparation method: the test pesticides were accurately weighed respectively with an electronic analytical balance. After the two technical materials were respectively added into an appropriate amount of solvent and completely dissolved, the stock solution of the required concentration was prepared with water containing 0.1% Tween 80. The stock solutions of the two active ingredients were mixed in a certain ratio to prepare a mixed solution, which was then diluted respectively into a series of pesticide solutions with a certain concentration gradient according to the experimental design dosage.
Experimental method: the artificial diet-pesticide film method was adopted. A standard clean 24-well culture plate was selected. 1 ml of artificial diet was added to each well. After the diet cooled and solidified, a quantitative amount of a pesticide solution was added to the culture plate using a continuous sampler, and then it was air-dried naturally in the shade. The standard test insects were introduced, with 1 insect in each well, a total of 48 insects. The treated test insects were placed in an observation room under certain conditions. The reaction of the test insects was regularly observed, and the number of dead and live insects was investigated 72 h later.
The evaluation method adopted was the Bliss method. This method is applicable to the qualitative screening of insecticidal compositions. According to the concept of independent joint action he proposed, Bliss believes that the theoretical mortality rate P when insecticides are used in combination can be calculated by the following formula: […]
Pm is the mortality rate (%) of the target when the first active ingredient is at a concentration of m; and Pn is the mortality rate (%) of the target when the second active ingredient is at a concentration of n.
as §6

[8] = test system: Frankliniella occidentalis Pergande; assay: Joint toxicity of I-72 + organophosphorus insecticides, leaf dipping, Example 14, Table 14; settings: in Phaseolus vulgaris, foliar, 48 h
Source text: Test target: Frankliniella occidentalis Pergande, a sensitive strain reared indoors.
Experimental method: first, kidney bean leaves were selected and dipped in the prepared pesticide solution for 10 s in the order from low dosage to high dosage according to the experimental design. After natural air-drying in the shade, they were placed in a 9-cm-diameter Petri dish with filter paper, and uniform and healthy test insects were introduced, with about 20 insects for each treatment and 3 replicates for each treatment. In addition, a blank control was set up.

[9] = Sitobion miscanthi, in Triticum aestivum, 48 h, read-out: Measured mortality rate
[10] = Ostrinia nubilalis, read-out: Mortality rate (%)

## CCOP(=S)(OCC)Oc1cc(C)nc(C(C)C)n1 [diazinon]
[1]
  LC50: 6.22 µg/mL
[2]
  LC50: 20.5 µg/mL

## CC(C)(C)C(O)(CCc1ccc(Cl)cc1)Cn1cncn1 (centres unmarked) [tebuconazole]
[3]; Holotrichia diomphalia, 72 h
  LC50: 477 µg/mL (≈ 1550 µM)

## CC1COC(Cn2cncn2)(c2ccc(Oc3ccc(Cl)cc3)cc2Cl)O1 (centres unmarked) [difenoconazole]
[3]; Holotrichia diomphalia, 72 h
  LC50: 500 µg/mL (≈ 1230 µM)

## CCOP(=S)(OCC)O/N=C(\C#N)c1ccccc1 [phoxim]
[4]
  LC50: 10.1 µg/mL
[2]; nymphs, cotton leaf spraying, A = compound I-72, B = phoxim, read-out: LC50
  LC50: 31.6 µg/mL

## CO/C=C(/C(=O)OC)c1ccccc1COc1cc(-c2ccc(Cl)cc2)nn1C [pyraoxystrobin]
Rhizoctonia solani; 5 mg/L, A = compound I-72, B = pyraoxystrobin
  Control efficacy: 42.8%
Rhizoctonia solani; 10 mg/L, A = compound I-72, B = pyraoxystrobin
  Control efficacy: 71.5%
Rhizoctonia solani; 20 mg/L, A = compound I-72, B = pyraoxystrobin
  Control efficacy: 82.4%

## Cc1cc(C)cc(C(=O)N(NC(=O)c2ccc3c(c2C)OC(C)C3)C(C)(C)C)c1 (centres unmarked) [Fufenozide]
[5]; 0.1 mg/L
  Measured mortality rate: 9.4%
[5]; 2 mg/L
  Measured mortality rate: 15.4%
[5]; 40 mg/L
  Measured mortality rate: 41.9%

## O=P(O)(O)CCCl [Ethephon]
[6]; [9]
  mortality at 0.2 µg/mL: 7%
  mortality at 10 µg/mL: 8.8%
  mortality at 500 µg/mL: 15%

## CN(C)C(CSS(=O)(=O)[O-])CSS(=O)(=O)O.[Na+] [Monosultap, monosultap]
[7]; single agent 0.1 mg/L
  Mortality rate (%): 0%
[7]; single agent 1 mg/L
  Mortality rate (%): 6.25%
[7]; single agent 5 mg/L
  Mortality rate (%): 18.75%
[7]; single agent 10 mg/L
  Mortality rate (%): 29.17%

## CN(C)C(CSS(=O)(=O)[O-])CSS(=O)(=O)[O-].[Na+].[Na+] [Bisultap, bisultap]
[7]; single agent 0.1 mg/L
  Mortality rate (%): 0%
[7]; single agent 1 mg/L
  Mortality rate (%): 4.17%
[7]; single agent 5 mg/L
  Mortality rate (%): 10.42%
[7]; single agent 10 mg/L
  Mortality rate (%): 22.92%

## CCCCc1c(C)c2ccc(OCc3ccccc3/C(=C\OC)C(=O)OC)cc2oc1=O [coumoxystrobin]
Rhizoctonia solani; 5 mg/L, A = compound I-72, B = coumoxystrobin
  Control efficacy: 44.3%
Rhizoctonia solani; 10 mg/L, A = compound I-72, B = coumoxystrobin
  Control efficacy: 61.9%
Rhizoctonia solani; 20 mg/L, A = compound I-72, B = coumoxystrobin
  Control efficacy: 81.5%

## CO/C=C(/C(=O)OC)c1ccccc1Oc1cc(Oc2ccccc2C#N)ncn1 [azoxystrobin]
[3]; A = compound I-72, B = azoxystrobin, insect-dipping, 72 hours
  LC50: 473.5404 µg/mL (≈ 1170 µM)

## CC(C)(C)[C@@H](O)[C@@H](Cc1ccc(Cl)cc1)n1cncn1 (racemic) [Paclobutrazol]
[6]; [9]
  mortality at 1 µg/mL: 6.8%
  mortality at 10 µg/mL: 7.8%
  mortality at 100 µg/mL: 11.3%

## COC(C)(C)CCC[C@H](C)C/C=C/C(C)=C/C(=O)OC(C)C (racemic) [Methoprene]
[5]
  mortality at 0.04 µg/mL: 10%
  mortality at 2 µg/mL: 17.9%
  mortality at 100 µg/mL: 25%

## C=C1C[C@]23C[C@@]1(O)CC[C@H]2[C@@]12C=C[C@H](O)[C@@](C)(C(=O)O1)[C@H]2[C@@H]3C(=O)O [Gibberellic acid]
[6]; [9]
  mortality at 0.5 µg/mL: 5.9%
  mortality at 10 µg/mL: 10%
  mortality at 200 µg/mL: 12.5%

## Nc1nc(N)nc(NC2CC2)n1 [Cyromazine]
[5]
  mortality at 0.1 µg/mL: 6.9%
  mortality at 2 µg/mL: 10.7%
  mortality at 40 µg/mL: 21.2%

## COc1cccc(C(=O)NN(C(=O)c2cc(C)cc(C)c2)C(C)(C)C)c1C [Methoxyfenozide]
[5]
  mortality at 0.1 µg/mL: 11.1%
  mortality at 2 µg/mL: 18.8%
  mortality at 40 µg/mL: 50%

## CCc1ccc(C(=O)NN(C(=O)c2cc(C)cc(C)c2)C(C)(C)C)cc1 [Tebufenozide]
[5]
  mortality at 0.1 µg/mL: 10.3%
  mortality at 2 µg/mL: 17.2%
  mortality at 40 µg/mL: 46.4%

## CC(COc1ccc(Oc2ccccc2)cc1)Oc1ccccn1 (centres unmarked) [Pyriproxyfen]
[5]
  mortality at 0.04 µg/mL: 7.1%
  mortality at 2 µg/mL: 9.7%
  mortality at 100 µg/mL: 16.1%

## CN(C)C(CSC(N)=O)CSC(N)=O [Cartap, cartap]
[7]; [10]
  mortality at 0.1 µg/mL: 2.08%
  mortality at 1 µg/mL: 10.4%
  mortality at 5 µg/mL: 20.8%
  mortality at 10 µg/mL: 43.8%

## CC1=CC(=O)CC(C)(C)[C@@]1(O)/C=C/C(C)=C/C(=O)O [S-abscisic acid]
[6]; 1 mg/L
  Measured mortality rate: 7.9%
[6]; 10 mg/L
  Measured mortality rate: 8.3%
[6]; 100 mg/L
  Measured mortality rate: 10.3%

## CCOC(=O)CC(SP(=S)(OC)OC)C(=O)OCC (centres unmarked) [malathion]
[8]
  LC50: 52.3 µg/mL

## CC(C)[C@H](C)[C@@H](O)[C@H](O)[C@@H](C)[C@H]1CC[C@H]2[C@@H]3COC(=O)[C@H]4C[C@H](O)[C@H](O)C[C@]4(C)[C@H]3CC[C@]12C [Brassinolide]
[6]; 0.5 mg/L
  Measured mortality rate: 6.7%
[6]; 10 mg/L
  Measured mortality rate: 8.8%
[6]; 200 mg/L
  Measured mortality rate: 12.6%

— patent US20260198495A1, “BINARY INSECTICIDE COMPOSITION AND USE THEREOF” (SHENYANG SINOCHEM AGROCHEMICALS R & D CO., LTD., priority 2022, published 2026)
